From patent publication US20100113268A1, “SYNERGISTIC ACTIVE COMPOUND COMBINATIONS” (priority 2006, published 2010) come the findings set out here.

The test concerns Meloidogyne incognita. Nature of the test: Meloidogyne incognita test (MELGIN), gall formation on lettuce roots in soil. The class given is in vivo. Particulars: single active compound, 100% = no galls, 0% = galls as untreated control. As for the experimental part: Meloidogyne incognita Test (MELGIN)
To produce a suitable preparation of active compound, 1 part by weight of active compound is mixed with the stated amounts of solvent and emulsifier, and the concentrate is diluted with water to the desired concentration.
Vessels are filled with soil, solution of active compound, Meloidogyne incognita egg/larvae suspension and lettuce seeds. The lettuce seeds germinate and plants develop. On the roots, galls are formed.
After the desired period of time, the nematicidal action is determined in % by the formation of galls. 100% means that no galls have been found; 0% means that the number of galls on the treated plants corresponds to that of the untreated control.

As to `O=[N+]([O-])/N=C1\NCCN1Cc1ccc(Cl)nc1` [Imidacloprid], where the note is “2 ppm”, the “Kill in % after 21 d” value worked out at 0%.

Take `CNC(=O)O/N=C(\SC)C(=O)N(C)C` [Oxamyl, oxamyl]: the “Kill in % after 21 d” value (0.125 ppm) amounted to 24%.

`CN/C(=N\[N+](=O)[O-])NCc1cnc(Cl)s1` [Clothianidin]: the “Kill in % after 21 d” value (2 ppm) is 0%.
